The values that follow are results of earlier work, collected in patent US11638718B2, “Treatment of alphavirus-induced inflammation” (priority 2016, dated 2023).

The subject of the data set is alphavirus. To be noted: earlier studies by the group (refs 30, 55-57); cited from earlier work.

For the molecule `CN(Cc1cnc2nc(N)nc(N)c2n1)c1ccc(C(=O)N[C@@H](CCC(=O)O)C(=O)O)cc1` [methotrexate], the “effect on alphavirus disease” value is given as “increased the onset of RRV-induced musculoskeletal disease”.
